# Patent US20080103205A1, “Pesticidal compositions and methods of use” (priority 2006, published 2008)
# Entries after “also recorded” stand apart in the source; their conditions may differ.
# Key:
# [1] = test system: a variety of nematode species, including Caenorhabditis elegans and Meloidogyne incognita; settings: 100 ppm; cited from earlier work
# [2] = test system: H. megidis; settings: concentrations up to 200 ug/ml; cited from earlier work
# [3] = test system: Heterorhabditis bacteriophora; assay: Toxicity test, infective juveniles (J3) of Heterorhabditis bacteriophora; type: in vivo; settings: 200 ppm, up to 168 hrs of exposure
# Protocol: Toxicity tests were conducted using infective juveniles (J3) of H. bacteriophora collected from infested Galleria mellonella larvae. Test solution (280 ul) was placed in a well of a 96-well plate and 20 ul aqueous solution containing nematodes was added. The nematodes in 20 ul solution ranged from 15 to 21 (n=10). Plates were sealed with Parafilm™ and incubated at room temperature. Similar tests conducted with 0.2% DMSO alone served as controls. Stock solution prepared in DMSO was added to wells to achieve 200 ppm. Nematode mortality was checked at 24, 48, 72, 120, and 168 hr after incubation. Nematodes that were motionless for 30 seconds when observed under stereo microscope were considered dead and included in mortality counts. Each concentration was replicated five times.
# This broad cross resistance supports a role for AT blockers in the action of these compounds.
# [4] = test system: voltage-gated chloride channels; settings: cited from earlier work
compound,measurement,setting,value
CC(C)c1c(O)cc(/C=C/c2ccccc2)cc1O [DST],24 hr lethality,[1],100%
same,sensitivity to DST,[2],completely insensitive
CCOP(=S)(OCC)Oc1nc(Cl)c(Cl)cc1Cl [chlorpyrifos],toxicity (FIG. 4),[3],fully susceptible; also recorded: quite active in killing
Cl[C@H]1[C@H](Cl)[C@@H](Cl)[C@@H](Cl)[C@H](Cl)[C@H]1Cl [lindane],"potency as inhibitor of [35S]TBPS binding, Torpedo membranes versus rat brain",[4],about 4 fold
